Test results: ChEMBL document CHEMBL1201862, “PubChem BioAssay data set” (2004)
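Briefly, cells in 96-well plates were exposed to five compound concentrations for 48 h, and endpoints were estimated by linear interpolation. Here, GI50 denotes the concentration required for 50% inhibition of growth.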 Calls of active or inactive are those of the source. Cut-off read from the data, not from the text of the source: active = GI50 up to about 1.1 µM and inactive = higher.

Experiments:
Assay in all cases: NCI tumour cell line growth inhibition, 48 h
[1] = system: 786-0
[2] = system: A498
[3] = system: A549
[4] = system: ACHN
[5] = system: BT-549
[6] = system: CAKI-1
[7] = system: CCRF-CEM
[8] = system: COLO 205
[9] = system: DU-145
[10] = system: EKVX
[11] = system: HCC 2998
[12] = system: HCT-116
[13] = system: HCT-15
[14] = system: HL-60
[15] = system: HOP-62
[16] = system: HOP-92
[17] = system: HT-29
[18] = system: Hs-578T
[19] = system: IGROV-1
[20] = system: K562
[21] = system: KM12
[22] = system: LOX IMVI
[23] = system: M14
[24] = system: MCF7
[25] = system: MDA-MB-231
[26] = system: MDA-MB-435
[27] = system: MDA-N
[28] = system: MOLT-4
[29] = system: Malme-3M
[30] = system: NCI-H226
[31] = system: NCI-H23
[32] = system: NCI-H460
[33] = system: NCI-H522
[34] = system: NCI/ADR-RES
[35] = system: OVCAR-4
[36] = system: OVCAR-5
[37] = system: OVCAR-8
[38] = system: PC-3
[39] = system: RPMI-8226
[40] = system: RXF 393
[41] = system: SF-268
[42] = system: SF-295
[43] = system: SK-MEL-28
[44] = system: SK-MEL-2
[45] = system: SK-MEL-5
[46] = system: SK-OV-3
[47] = system: SN12C
[48] = system: SNB-19
[49] = system: SR
[50] = system: SW-620
[51] = system: T47D
[52] = system: TK-10
[53] = system: U-251
[54] = system: UACC-257
[55] = system: UACC-62
[56] = system: UO-31
[57] = system: OVCAR-3
[58] = system: SF-539
[59] = system: SNB-75

Question: Which results are given for `N=C1OC(CN2CCN(c3ccccc3)CC2)CN1C(=O)Nc1ccccc1` (centres undefined)?
Answer: GI50 [1]: > 100 µM (inactive); GI50 [2]: > 100 µM (inactive); GI50 [3]: > 100 µM (inactive); GI50 [4]: > 100 µM (inactive); GI50 [5]: > 100 µM (inactive); GI50 [6]: > 100 µM (inactive); GI50 [7]: 43.3 µM (inactive); GI50 [8]: > 100 µM (inactive); GI50 [9]: > 100 µM (inactive); GI50 [10]: > 100 µM (inactive); GI50 [11]: > 100 µM (inactive); GI50 [12]: > 100 µM (inactive); GI50 [13]: > 100 µM; GI50 [14]: 53.5 µM (inactive); GI50 [15]: > 100 µM (inactive); GI50 [16]: > 100 µM (inactive); GI50 [17]: > 100 µM (inactive); GI50 [18]: > 100 µM (inactive); GI50 [19]: > 100 µM (inactive); GI50 [20]: 60.5 µM (inactive); GI50 [21]: > 100 µM (inactive); GI50 [22]: > 100 µM (inactive); GI50 [23]: > 100 µM (inactive); GI50 [24]: > 100 µM (inactive); GI50 [25]: > 100 µM (inactive); GI50 [26]: > 100 µM (inactive); GI50 [27]: > 100 µM (inactive); GI50 [28]: > 100 µM (inactive); GI50 [29]: > 100 µM (inactive); GI50 [30]: > 100 µM (inactive); GI50 [31]: > 100 µM (inactive); GI50 [32]: > 100 µM (inactive); GI50 [33]: 39.7 µM (inactive); GI50 [34]: > 100 µM (inactive); GI50 [35]: > 100 µM (inactive); GI50 [36]: > 100 µM (inactive); GI50 [37]: > 100 µM (inactive); GI50 [38]: > 100 µM (inactive); GI50 [39]: > 100 µM (inactive); GI50 [40]: > 100 µM (inactive); GI50 [41]: > 100 µM (inactive); GI50 [42]: > 100 µM (inactive); GI50 [43]: > 100 µM (inactive); GI50 [44]: > 100 µM (inactive); GI50 [45]: > 100 µM (inactive); GI50 [46]: > 100 µM (inactive); GI50 [47]: > 100 µM (inactive); GI50 [48]: > 100 µM (inactive); GI50 [49]: 57.7 µM (inactive); GI50 [50]: > 100 µM (inactive); GI50 [51]: > 100 µM (inactive); GI50 [52]: > 100 µM (inactive); GI50 [53]: > 100 µM (inactive); GI50 [54]: > 100 µM (inactive); GI50 [55]: > 100 µM (inactive); GI50 [56]: > 100 µM (inactive)

Question: Which results are given for `CC(C)C(C/C=C1\CC(CO)(COC(=O)CC(C(C)C)C(C)C)OC1=O)C(C)C` (centres undefined)?
Answer: GI50 [1]: 7.03 µM (inactive); GI50 [2]: 11.7 µM (inactive); GI50 [3]: 3.72 µM (inactive); GI50 [4]: 10.3 µM (inactive); GI50 [5]: 14.6 µM (inactive); GI50 [6]: 6.87 µM (inactive); GI50 [7]: 4.06 µM (inactive); GI50 [8]: 1.49 µM (inactive); GI50 [9]: 8.85 µM (inactive); GI50 [10]: 10 µM (inactive); GI50 [11]: 5.96 µM (inactive); GI50 [12]: 14.1 µM (inactive); GI50 [13]: 18.5 µM; GI50 [14]: 2.74 µM (inactive); GI50 [15]: 5.08 µM (inactive); GI50 [16]: 0.902 µM (active); GI50 [17]: 17.7 µM (inactive); GI50 [18]: 3.8 µM (inactive); GI50 [19]: 14.7 µM (inactive); GI50 [20]: 1.36 µM (inactive); GI50 [21]: 14.2 µM (inactive); GI50 [22]: 12.6 µM (inactive); GI50 [23]: 11.7 µM (inactive); GI50 [24]: 15.7 µM (inactive); GI50 [25]: 12.8 µM (inactive); GI50 [26]: 7.06 µM (inactive); GI50 [27]: 2.96 µM (inactive); GI50 [28]: 1.05 µM (active); GI50 [29]: 1.45 µM (inactive); GI50 [30]: 9.04 µM (inactive); GI50 [31]: 15 µM (inactive); GI50 [32]: 4.07 µM (inactive); GI50 [33]: 13.8 µM (inactive); GI50 [34]: 16 µM (inactive); GI50 [57]: 15.6 µM (inactive); GI50 [35]: 17.6 µM (inactive); GI50 [36]: 13.9 µM (inactive); GI50 [37]: 17.9 µM (inactive); GI50 [38]: 11.7 µM (inactive); GI50 [40]: 14.5 µM (inactive); GI50 [41]: 14.2 µM (inactive); GI50 [42]: 4.62 µM (inactive); GI50 [58]: 18.3 µM (inactive); GI50 [43]: 14.9 µM (inactive); GI50 [44]: 20.9 µM (inactive); GI50 [45]: 11 µM (inactive); GI50 [46]: 17.7 µM (inactive); GI50 [47]: 9.1 µM (inactive); GI50 [48]: 13.3 µM (inactive); GI50 [59]: 10.4 µM (inactive); GI50 [49]: 12.4 µM (inactive); GI50 [50]: 7.46 µM (inactive); GI50 [51]: 13.3 µM (inactive); GI50 [52]: 7.31 µM (inactive); GI50 [53]: 13.8 µM (inactive); GI50 [54]: 15.6 µM (inactive); GI50 [55]: 15.1 µM (inactive); GI50 [56]: 6.87 µM (inactive)
